18 compounds from PubChem BioAssay (NCI) can be followed below.

Common to all, as to assay: NCI-60 cell line screen, 48 h
Experiment [1] has as its system MDA-N.
The test system of experiment [2] is UACC-62 melanoma.
For experiment [3], the system named is UO-31 renal.
In experiment [4] the test system is M14 melanoma.
For experiment [5], the system named is OVCAR-8 ovarian.
The test system of experiment [6] is PC-3 prostate.
Experiment [7] deals with HT29 colon.
For experiment [8], the system named is TK-10 renal.
Experiment [9] has as its system HS 578T breast.
The test system of experiment [10] is SR leukemia.
For experiment [11], the system named is NCI-H23 lung.
The test system of experiment [12] is RPMI-8226 leukemia.
In experiment [13] the test system is SK-MEL-2 melanoma.
For experiment [14], the system named is HCT-15 colon.
Experiment [15] concerns BT-549 breast.
Experiment [16] relates to SN12C renal.
Experiment [17] deals with LOX IMVI melanoma.

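Briefly, cells in 96-well plates were exposed to five compound concentrations for 48 h, and endpoints were estimated by linear interpolation. TGI marks complete inhibition of growth.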

For `CCOC(=O)NNC1(SC)NC(=O)c2c(cc(Cl)oc2=O)O1` (stereo unspecified), the TGI in experiment [1] stood at 22.2 µM; in [2] it was 25.1 µM; in experiment [3], 3.35 µM; in [4], 11.7 µM; in experiment [5], 5.56 µM; in experiment [6] it was 13.2 µM. The TGI was found to be 5.26 µM in experiment [7]; 10.1 µM in experiment [8]; 12.3 µM in experiment [9]; 6.69 µM in [10]; 13.1 µM in experiment [11]; 7.65 µM in experiment [12]. Moreover, the TGI worked out at 24 µM in experiment [13]; 5.28 µM in [14]; 12.2 µM in [15]; 14.7 µM in experiment [16]; 6.18 µM in experiment [17].
As to `O=C1CNc2cc(N3CCN(c4cccc(C(F)(F)F)c4)CC3)ccc2N1`, the TGI in [1] was > 100 µM; in experiment [2], > 86.1 µM; in [3] it was > 100 µM; in experiment [4], > 100 µM; in [5] it was > 100 µM; in experiment [6] it was > 82.7 µM. Moreover, the TGI in [7] was > 100 µM; in experiment [8], > 100 µM; in experiment [9], > 100 µM; in experiment [10] it was > 100 µM; in experiment [11], > 100 µM; in [12], > 67.5 µM. In addition, the TGI in [13], in experiment [14], in [15], in experiment [16] and in [17] was > 100 µM in each case.
Regarding `CCC(/C=C/c1ccccc1)=N\NC(=S)N/N=C(/C=C/c1ccccc1)CC`, the TGI in [1] is > 100 µM; in experiment [2], > 100 µM; in [3] it was > 100 µM; in experiment [4], > 100 µM; in experiment [5], 45.9 µM; in experiment [6], > 100 µM. In addition, the TGI in experiment [7] is > 100 µM; in experiment [8], > 100 µM; in experiment [9], > 100 µM; in [10] it was 91.3 µM; in experiment [11], > 100 µM; in experiment [12], > 100 µM. The TGI in experiment [14], in [15], in experiment [16] and in experiment [17] was > 100 µM throughout.
Regarding `C=CCC1(O)c2cccc(O)c2C(=O)c2cccc(O)c21` (stereo unspecified), the TGI in [1] was 31.1 µM; in experiment [3] it was 52.8 µM; in [4], 32 µM; in [5], > 100 µM; in experiment [6], 47.3 µM; in experiment [7] it was 64.1 µM. Besides, the TGI in experiment [8] was 73.5 µM; in experiment [9], 41.8 µM; in experiment [10] it was 36.3 µM; in [11], 31.7 µM; in [12] it was 76.1 µM; in experiment [13] it was 31.1 µM. For the same compound, the figures for the TGI in experiment [14], in experiment [15] and in experiment [17] were 51.8 µM, 47.4 µM and 30.9 µM, respectively.
Consider `CC1C=C(NCC2(CO)CCC2)NC(N)=N1` (stereo unspecified), for which the TGI in experiment [1], in [2], in experiment [3], in experiment [4], in experiment [5] and in [6] was > 100 µM each time. The TGI in [7], in experiment [9], in [10], in [11], in [12] and in experiment [13] was > 100 µM in each case. Also, the TGI in experiment [14], in experiment [15], in [16] and in experiment [17] was > 100 µM throughout.
On to `Cn1c2c(c3ccccc31)CC(=O)N1CCCCC1C21OCCO1` (stereo unspecified), for which the TGI in [1], in [2], in [3], in experiment [4], in experiment [5] and in [6] was > 100 µM in each case. The TGI in experiment [7], in experiment [8], in experiment [9], in [10], in experiment [11] and in [12] was > 100 µM each time. Moreover, the TGI in experiment [13], in experiment [14], in experiment [15] and in [16] was > 100 µM each time.
As to `CCOC(=O)c1c(NC(=O)c2ccccc2)sc2c1CCC2`, the TGI in [1], in experiment [2], in [3], in [4], in experiment [5] and in experiment [6] was > 100 µM throughout. For the same compound, the TGI in experiment [7], in [8], in [9], in experiment [10], in experiment [11] and in experiment [12] was > 100 µM throughout. The TGI in experiment [13], in experiment [14], in experiment [15] and in experiment [16] was > 100 µM in each case.
For `O=C(O)c1cc2c(cc1S(=O)(=O)O)C1C(C3C2C2(Cl)C(Cl)=C(Cl)C3(Cl)C2(Cl)Cl)C2(Cl)C(Cl)=C(Cl)C1(Cl)C2(Cl)Cl` (stereo unspecified), the TGI in experiment [1] is > 100 µM; in [2], 46.9 µM; in experiment [3], > 100 µM; in [4], > 100 µM; in experiment [5], > 100 µM; in experiment [6], > 100 µM. In addition, the TGI in [7] is 48 µM; in [8], > 100 µM; in experiment [9], > 100 µM; in [10] it was 74.7 µM; in experiment [11], 73.3 µM; in experiment [12] it was > 100 µM. The TGI in experiment [13] is 73.4 µM; in experiment [14], > 100 µM; in experiment [15], > 100 µM; in experiment [16], 46.4 µM.
Turning to `C=C1CC(CNc2cc(Cl)nc(N)n2)C1`, the TGI in experiment [1], in experiment [2], in experiment [3], in experiment [5], in experiment [6] and in experiment [7] was > 100 µM throughout. For the same compound, the TGI in [8], in [9], in experiment [10], in experiment [11], in [12] and in experiment [13] was > 100 µM in each case. The TGI in experiment [14], in [15], in experiment [16] and in experiment [17] was > 100 µM throughout.
With `N#Cc1nc(Cc2ccccc2)oc1N`, the TGI in experiment [1], in experiment [3], in experiment [4], in [6], in [7] and in experiment [8] was > 100 µM throughout. Also, the TGI in experiment [9], in [10], in [11], in experiment [12], in [13] and in experiment [14] was > 100 µM in each case. The TGI in experiment [15], in experiment [16] and in experiment [17] was > 100 µM in each case.
With `OCC1CCCCN1Cc1nc2ccc(Cl)cc2[nH]1` (stereo unspecified), the TGI in experiment [1], in experiment [2], in experiment [3], in experiment [4], in experiment [5] and in experiment [6] was > 100 µM each time. The TGI in [7], in [8], in experiment [9], in experiment [10], in experiment [11] and in experiment [12] was > 100 µM in each case. In addition, the TGI in experiment [13], in experiment [14], in experiment [15] and in experiment [16] was > 100 µM throughout.
As for `C(/C=N/NC1=NCCN1)=N\NC1=NCCN1`, the TGI in [1], in experiment [2], in experiment [3], in [4], in experiment [5] and in experiment [6] was > 100 µM in each case. The TGI in experiment [7], in [9], in [10], in experiment [11], in experiment [12] and in [13] was > 100 µM each time. Besides, the TGI in experiment [14], in experiment [15] and in [17] was > 100 µM throughout.
Take `Cn1c2ccccc2n2c3ccccc3c(=S)c(C#N)c12`: the TGI in [1], in [2], in experiment [3], in [4], in experiment [5] and in experiment [6] was > 100 µM throughout. In addition, the TGI in [7], in experiment [8], in experiment [9], in experiment [10], in [11] and in experiment [12] was > 100 µM in each case. In addition, the TGI in experiment [13], in [14], in [15] and in experiment [17] was > 100 µM throughout.
As for `Cc1ccc(NC(=S)NNC(=O)c2cc(-c3ccccc3)nc3ccccc23)cc1C`, the TGI amounted to 40 µM in experiment [1]; 37 µM in [2]; 36.3 µM in [3]; 33.8 µM in [4]; 44.5 µM in experiment [5]; 42.9 µM in experiment [6]. Moreover, the TGI in experiment [7] was 49.2 µM; in experiment [8] it was 63.1 µM; in [9], > 100 µM; in experiment [10], 36.4 µM; in experiment [11], 48.2 µM; in [12], 59.2 µM. Besides, the TGI in [13] is 37.3 µM; in experiment [14], 60.5 µM; in [15] it was 44.2 µM; in experiment [16] it was 38.1 µM.
Turning to `Cc1cc2nc3c(C(O)CO)nn(-c4ccccc4)c3nc2cc1C` (stereo unspecified), the TGI is 40.6 µM in experiment [1]; 36.1 µM in experiment [3]; > 100 µM in experiment [4]; 76.8 µM in experiment [5]; 32.7 µM in [6]; 46.5 µM in [7]. For the same compound, the TGI is 35.4 µM in experiment [8]; 70.9 µM in [9]; 33.4 µM in experiment [10]; 54.7 µM in experiment [11]; > 100 µM in [12]; 56.2 µM in experiment [13]. For the same compound, the TGI was 42.6 µM in experiment [14], 42.8 µM in experiment [15], 32.4 µM in [16] and 66.3 µM in experiment [17].
`C/C(=N/NC(=S)N(Cc1ccccn1)Cc1ccccn1)c1cnccn1`: the TGI in [1] is 31.2 µM; in experiment [3], 0.525 µM; in experiment [4] it was > 35.9 µM; in experiment [6], 26 µM; in experiment [7], 10.3 µM; in experiment [8], 19.2 µM. Besides, the TGI in experiment [9] is 55.7 µM; in experiment [10], > 55.2 µM; in experiment [11], 11.4 µM; in experiment [12], > 37.4 µM; in experiment [13], 26 µM; in [14] it was 87.1 µM. Also, the TGI in experiment [15] stood at 12.7 µM; in [16], 12.9 µM; in experiment [17] it was 0.447 µM.
With `CC1(C)N=C(N)N=C(N)N1c1ccc(CCCCc2ccc(Cl)cc2Cl)cc1`, the TGI was determined as 2.67 µM in experiment [1]; 43.9 µM in [3]; 14 µM in experiment [4]; 16.1 µM in experiment [5]; 3.27 µM in experiment [6]; 13 µM in experiment [7]. Besides, the TGI came to 15.7 µM in [8]; 22.9 µM in [9]; 60.4 µM in experiment [10]; 11.9 µM in [11]; 19.2 µM in experiment [12]; 13.5 µM in experiment [13]. The TGI in [14] is > 100 µM; in [15], 6.3 µM; in experiment [16] it was 12.7 µM; in experiment [17], 16.4 µM.
For the compound `Cc1ccc(NNc2cc(=O)[nH]c(=O)[nH]2)cc1Cl`, the TGI in experiment [1] is 28.6 µM; in experiment [2], > 100 µM; in experiment [3], 15.3 µM; in experiment [4], 26.9 µM; in [6], > 100 µM; in experiment [7] it was 28.7 µM. The TGI was 33.1 µM in experiment [8]; > 100 µM in experiment [9]; > 100 µM in experiment [10]; 31.1 µM in experiment [11]; 49.2 µM in [12]; 30.9 µM in experiment [13]. Besides, the TGI in experiment [14] was 22.7 µM; in experiment [15], > 100 µM; in [16], > 100 µM; in [17] it was 18.4 µM.
